How the values were obtained:
Format in all cases: physicochemical
[1] = Stability of the 1-napsylate salt; conditions: two weeks
[2] = Water content of AN-168 by Karl Fischer (KF) titration
Experimental: (§1) Water absorption and content measurements were carried out using a Karl Fischer (KF) titrator. Karl Fischer titration is a classic method in analytical chemistry that uses calometric titration to determine the moisture content of a sample, which is specific to water. The titration reaction taking place in the presence of a base and 50:50 methanol:dichloromethane as a titration solvent.
The Karl Fischer chemical reaction takes place between iodine and water with the reactants being in a 1 to 1 ratio between iodine and water.
(§2) The accurately weighted samples (near 100 mg) of the tested compound were placed in the titrator to determine the amount of sample required for measuring 10-250 μg of water, and the water content was calculated accordingly.

[3] = Stability of AN-168 dry salt by HPLC at 5, 20 and 40° C.
Experimental: (§3) HPLC analyses were performed on a Water 2695 Separations Module, using a Luna C18 (2) 50 mm×4.6 mm×3 um column, a 5 μl injection volume and a 2487 dual wavelength detector under the following instrumental conditions: Mobile phase A: 0.1% formic acid; Mobile phase B: acetonitrile; Flow rate: 0.5 ml per minute; Mobile phase gradient: 0.0 minutes 90% A, 10% B, 14.0 minutes 20% A, 80% B, 15.0 minutes 90% A, 10% B and 20.0 minutes 90% A, 10% B; Run time: 20 minutes; Detection: UV at 254 nm; Column temperature: 40° C.
To determine the stability of the HCl salt of the GABA conjugate (AN-168), prepared according to the procedure described in Example 2 above, three samples of the salt were studied by HPLC analyses. Thus, samples of AN-168 as dry salt were kept at 5° C., 20° C. and 40° C. over a period of 24 day and were analyzed by HPLC for determining the appearance of degradation products.

[4] = Hygroscopicity of the oxalate salt by Karl Fischer titration; conditions: open container at room temperature
Experimental: as §1, §2
(§4) A sample of the oxalate addition salt was kept in an open container at room temperature for a five-week period (about 840 hours) and analyzed thereafter. The hygroscopicity of the oxalate salt was determined by following the water content of the salt using the Karl Fischer (KF) titration analysis method and the chemical stability of the oxalate salt was determined by following the appearance of the degradation product perphenazine in HPLC analysis.

[5] = Chemical stability of the oxalate salt by HPLC, open container; conditions: for perphenazine content (HPLC) / purity of the salt (HPLC): open container at room temperature
Experimental: as §3, §4

[6] = sealed and open container at room temperature
[7] = dry salt kept at 5° C., 0 hours
[8] = dry salt kept at 5° C., 24 hours
[9] = dry salt kept at 5° C., 48 hours
[10] = dry salt kept at 5° C., 120 hours
[11] = dry salt kept at 5° C., 144 hours
[12] = dry salt kept at 5° C., 336 hours
[13] = dry salt kept at 5° C., 456 hours
[14] = dry salt kept at 5° C., 504 hours
[15] = dry salt kept at 5° C., 576 hours
[16] = dry salt kept at 20° C., 0 hours
[17] = dry salt kept at 20° C., 24 hours
[18] = dry salt kept at 20° C., 48 hours
[19] = dry salt kept at 20° C., 120 hours
[20] = dry salt kept at 20° C., 144 hours
[21] = dry salt kept at 20° C., 336 hours
[22] = dry salt kept at 20° C., 456 hours
[23] = dry salt kept at 20° C., 504 hours
[24] = dry salt kept at 20° C., 576 hours
[25] = dry salt kept at 40° C., 0 hours
[26] = dry salt kept at 40° C., 24 hours
[27] = dry salt kept at 40° C., 48 hours
[28] = dry salt kept at 40° C., 120 hours
[29] = dry salt kept at 40° C., 144 hours
[30] = dry salt kept at 40° C., 336 hours
[31] = dry salt kept at 40° C., 456 hours
[32] = dry salt kept at 40° C., 504 hours
[33] = dry salt kept at 40° C., 576 hours
[34] = end of five-week period (about 840 hours)

NCCCC(=O)OCCN1CCN(CCCN2c3ccccc3Sc3ccc(Cl)cc32)CC1.O=S(=O)(O)c1cccc2ccccc12.O=S(=O)(O)c1cccc2ccccc12.O=S(=O)(O)c1cccc2ccccc12 [1-napsylate salt]
degradation to perphenazine [1, 6]: minimal degradation | stability in words [1, 6]: stable | stability in words ([1]; stored at both −20° C. and 0° C. under nitrogen in a closed container): highly stable

Cl.NCCCC(=O)OCCN1CCN(CCCN2c3ccccc3Sc3ccc(Cl)cc32)CC1 [AN-168, Perphenazine 4-Aminobutyrate Hydrochloride]
hygroscopicity ([2]; final product): hygroscopic | water content (KF) ([2]; final product, recrystallized): 1.05 % weight/weight | water content (KF) ([2]; repeated procedure with additional 2 hours at 40° C.): 12.5 % weight/weight | AN-168 % area [3, 7]: 98.64 % area | Perphenazine % area [3, 7]: 1.36 % area | AN-168 % area [3, 8]: 98.57 % area | Perphenazine % area [3, 8]: 1.43 % area | AN-168 % area [3, 9]: 98.52 % area | Perphenazine % area [3, 9]: 1.48 % area | AN-168 % area [3, 10]: 98.40 % area | Perphenazine % area [3, 10]: 1.60 % area | AN-168 % area [3, 11]: 98.13 % area | Perphenazine % area [3, 11]: 1.87 % area | AN-168 % area [3, 12]: 97.21 % area | Perphenazine % area [3, 12]: 2.03 % area | AN-168 % area [3, 13]: 97.95 % area | Perphenazine % area [3, 13]: 2.05 % area | AN-168 % area [3, 14]: 97.15 % area | Perphenazine % area [3, 14]: 2.85 % area | AN-168 % area [3, 15]: 96.14 % area | Perphenazine % area [3, 15]: 3.49 % area | AN-168 % area [3, 16]: 98.64 % area | Perphenazine % area [3, 16]: 1.36 % area | AN-168 % area [3, 17]: 98.42 % area | Perphenazine % area [3, 17]: 1.58 % area | AN-168 % area [3, 18]: 98.31 % area | Perphenazine % area [3, 18]: 1.69 % area | AN-168 % area [3, 19]: 97.68 % area | Perphenazine % area [3, 19]: 2.32 % area | AN-168 % area [3, 20]: 97.26 % area | Perphenazine % area [3, 20]: 2.74 % area | AN-168 % area [3, 21]: 96.26 % area | Perphenazine % area [3, 21]: 3.74 % area | AN-168 % area [3, 22]: 95.58 % area | Perphenazine % area [3, 22]: 4.51 % area | AN-168 % area [3, 23]: 94.60 % area | Perphenazine % area [3, 23]: 5.40 % area | AN-168 % area [3, 24]: 93.80 % area | Perphenazine % area [3, 24]: 5.87 % area | AN-168 % area [3, 25]: 98.64 % area | Perphenazine % area [3, 25]: 1.36 % area | AN-168 % area [3, 26]: 97.97 % area | Perphenazine % area [3, 26]: 2.03 % area | AN-168 % area [3, 27]: 97.70 % area | Perphenazine % area [3, 27]: 2.30 % area | AN-168 % area [3, 28]: 96.95 % area | Perphenazine % area [3, 28]: 3.05 % area | AN-168 % area [3, 29]: 97.03 % area | Perphenazine % area [3, 29]: 2.97 % area | AN-168 % area [3, 30]: 96.69 % area | Perphenazine % area [3, 30]: 3.31 % area | AN-168 % area [3, 31]: 95.55 % area | Perphenazine % area [3, 31]: 4.45 % area | AN-168 % area [3, 32]: 95.62 % area | Perphenazine % area [3, 32]: 3.92 % area | AN-168 % area [3, 33]: 95.55 % area | Perphenazine % area [3, 33]: 4.06 % area | stability in words ([3]; over time, at each of the tested temperatures (5, 20, 40° C.)): degraded into perphenazine and GABA and/or underwent trans-esterification to perphenazine and 2-pyrrolidinone

NCCCC(=O)OCCN1CCN(CCCN2c3ccccc3Sc3ccc(Cl)cc32)CC1.O=C(O)C(=O)O.O=C(O)C(=O)O.O=C(O)C(=O)O [oxalate addition salt]
water content (KF) [4, 34]: 1.90 weight percents | water content (KF) ([4]; initial): 1.36 weight percents | stability and hygroscopicity in words ([5]; as compared to the HCl salt (AN-168)): more stable and less hygroscopic | perphenazine content (HPLC) [5, 34]: 1.71% | purity of the salt (HPLC) [5, 34]: 94.61% | perphenazine content (HPLC) ([5]; initial): 0.75% | purity of the salt (HPLC) ([5]; initial): 98.05%
